Results: patent EP0866075B1, “Method to treat microbial infections by uncoupling of phosphotransferase system and appropriate agents therefor” (Arpida AG,, priority 1997, dated 1998)
≈ marks a conversion by molar mass, not a printed value. No end group written: not given here.

System: E. coli K-12 UT580
Experiment: Growth inhibition assay (filter discs on LB soft agar)
Type: cell-based
Conditions: E. coli K-12 UT580, LB agar, over night at 37°C
From the text: Fig. 4. Growth inhibition of E. coli K12 UT580. […]

In order of falling “growth inhibition MIC” value:
1. KKFHLRK [peptide 1, KKFHLRK]  125.8 µM
2. KKWHLRKR [compound 5]  63.0 µM

System: E. coli K-12 UT580
Experiment: microbe, parasite or virus in culture
Conditions: Escherichia coli, K12UT580, 24 h, read-out: growth inhibition MIC
Protocol: Growth inhibition assay. An over night culture of E. coli K-12 UT580 grown in LB-medium was diluted 1:30 into soft agar (0.7% agarose in LB broth) at 40°C, and 3 ml of the diluted cell suspension were spread an LB agar plates. Filter discs (4.4 mm diameter) were placed in regular intervals on the solidified top agar. To each filter was added 10 µl of one of the different peptide stock solutions (20 µM to 80 µM). The agar plates were incubated over night at 37°C. The area of the clear zone around each filter disc was determined. The clear area is taken as a measure for the growth inhibitory activity of the peptide.
Growth inhibition of E. coli K12 UT580. Peptides were added to filter discs and placed onto a cell culture in LB soft agar. The clear zones are indicative of growth inhibition (panel A).

In the case of `CN(C)[C@@H]1C(O)=C(C(N)=O)C(=O)[C@@]2(O)C(O)=C3C(=O)c4c(O)cccc4[C@@](C)(O)[C@H]3C[C@@H]12` [tetracycline], the MIC is reported as 2.5 µM (≈ 1.11 µg/mL).

Target: T1, enzyme I (Escherichia coli, UniProt P08839)
T1 construct: 3 µM each of purified HPr and enzyme I (Mao et al., 1995); made in house
Experiment: biochemical
Set-up: species or system E. coli
Conditions: not given
From the text: Fig. 2. Assays for the screening, selection and characterization of inhibitory compounds from combinatorial libraries. Reaction products that can be determined experimentally are boxed. The inhibitory compound X can be in soluble form, immobilized on a filamentous phage, or bound to a microtiter well. The transporter for GlcNAc (shaded in grey) contains the IIA, IIB and IIC functional units as domains of a single polypeptide chain. • (a) Binding of Enzyme I to immobilized ligands, e.g. filamentous phages from a phage display library or synthetic peptides from a combinatorial peptide library was detected using [^1251]-Enzyme I and autoradiography. • (b) Phosphorylation by Enzyme I. To identify peptides and filamentous phages displaying a peptide which can be phosphorylated by Enzyme 1, support based peptide libraries and immobilized peptide-displaying phages were incubated over night with enzyme I in the presence of [^32P]phosphoenolpyruvate, and the phosphorylated species were detected with a PhosphorImager. […] A conventional and well established assay to colorimetrically detect the formation of inorganic phosphate has been adapted to the specific needs. The assay can be performed in microtiter plates and quantitated with a microplate photoreader. Another assay to monitor phosphatase activity of soluble compounds is based on the detection of pyruvate which is continuously produced from phosphoenolpyruvate whenever enzyme I is dephosphorylated. The enzyme I-specific phosphatase activity of soluble compounds can be detected from the pyruvate burst. The rate of pyruvate formation is monitored with lactate dehydrogenase and NADH. The assay can be performed in microtiter plates and quantitated with a microplate photoreader. • (d) Inhibition of in vitro PTS activity. The inhibitory activity of soluble compounds can be measured quantitatively in the sugar phosphotransferase assay in the presence of the purified PTS proteins and with [^14C]GlcNAc ([^14C]N-acetyl-glucosamine) or (14C] Glc ([^14C]glucose) as terminal phosphate acceptor (Emi et al., 1982). • (e) Inhibition of PTS activity in bacteria. Compounds that specifically interfere with the PTS can also be detected in bacteria. Indicator E. coli (or any other bacteria) will be plated an two defined minimal salts media containing either glucose or a nonPTS Substrate e.g. lactose as the only carbon source. Compounds from chemical libraries are applied to both cultures.
Inhibition of phosphotransferase activity by soluble peptides. This assay measures the inhibition of enzyme I dependent sugar phosphorylation activity. […] The purified N-acetylglucosamine transporter (II^GlcNAc) of E.coli (Mukhija and Erni, 1996) was used as the sugar specific component. The reaction mixture contained per 100 µl, 100 µg phosphatidyl glycerol from egg yolk (Sigma), 50 mM KPi, pH 7.5, 2.5 mM dithiothreitol, 2.5 mM NaF, 5 mM MgCl2, […] (potassium salt, Sigma), 0.5 mM [U-^14C]GlcNAc (New England Nuclear; 56.3 mCi/mmol, diluted to 1000 cpm/nmol), and 3 µM each of purified HPr and enzyme I (Mao et al., 1995). The reaction was started by addition of 0.1 µg of II^GlcNAc. After incubation for 30 min at 37°C, the reaction was stopped by adding 1 ml ice-cold water. GlcNAc-6-Phosphate was separated from free GlcNAc by anion-exchange chromatography on AG-1-X2 (50-100 mesh, Biorad). Activity is expressed as nmoles of sugar-P formed after 30 min. The HPr concentration was adjusted such that it was rate limiting in the overall phosphotransferase reaction. The inhibitory peptides were added to concentrations of 25 µM to 10 mM. Phosphorylation of GlcNAc in the absences of peptide was taken as 100%.

KKFHLRK [peptide 1, KKFHLRK] was tested, and the IC50 was 150 µM.

Same assay, conditions: peptides from support-based combinatorial libraries; 30 min at 37°C, HPr rate limiting

For KKFALRK [compound 2, KKFALRK], the “inhibition IC50” value was “none”.

Same assay, conditions: peptides from support-based combinatorial libraries; 30 min at 37°C, HPr rate limiting; read-out: inhibition IC50

In order of falling IC50:
1. KKFDLRK [compound 3, KKFDLRK]  820 µM
2. KGWHKRKK [compound 6]  530 µM
3. KKWHKRKK [compound 8]  440 µM
4. KKWHRRKK [compound 7]  300 µM
5. KKFHIRKR [compound 9]  160 µM
6. KKWHLRKR [compound 5]  30 µM

Same assay, conditions: peptides identified by phage display; 30 min at 37°C, HPr rate limiting; read-out: inhibition IC50

In order of rising IC50:
1. GLRFGKTRVHYLVLG [compound 14]  25 µM
2. SGRKSTRVHHWLLVL [compound 15]  60 µM
3. KMSRHRKPGA [compound 16]  100 µM
4. KISRHGKRGK [compound 18]  140 µM
5. RIHFIPRRGR [compound 20]  280 µM
6. RLHYLF [compound 21, RLHYLF]  375 µM
7. RHWSIF [compound 24, RHWSIF]  400 µM
8. RHRTLF [compound 25, RHRTLF]  410 µM
9. RHYLLF [compound 26, RHYLLF]  500 µM
10. RHITSL [compound 27, RHITSL]  650 µM
11. MSRHRN [compound 29, MSRHRN]  760 µM
12. KISRHGRPTG [compound 19]  1070 µM
13. DGARLHYLF [compound 22]  1200 µM
14. RHITLF [compound 28, RHITLF]  1380 µM
15. Ac-DGARLHYLF [compound 23]  7600 µM
